Drawing on US7678913B2, “Ureas as factor Xa inhibitors” (Portola Pharmaceuticals, Inc., priority 2004, dated 2010), this text covers IC50 for 31 compounds.

Each structure is given as a SMILES string. Some results are limits rather than exact numbers.

This experiment has as its target T1, human plasma protein factor Xa (Homo sapiens, UniProt P00742).
T1 construct: measure proteolytic activity of the enzyme (factor Xa); purchased Haematologic Technologies (Essex Junction, Vt.); host or cells: human plasma
The experiment is described as follows: Factor Xa IC50 determination (cleavage of chromogenic substrate S-2765). The following applies: fXa 1 nM, S-2765 100 μM, Tris buffered saline pH 7.4, room temperature. It is filed as biochemical. The source says:
This example illustrates methods for evaluating the compounds of the invention, along with results obtained for such assays. The in vitro and in vivo Factor Xa isoform activities of the inventive compounds can be determined by various procedures known in the art, such as a test for their ability to inhibit the activity of the Factor Xa isoform. […] The IC50 value is the concentration (in nM) of the compound required to provide 50% inhibition of Factor Xa isoform.
An in vitro assay for detecting and measuring inhibition activity against Factor Xa is as follows:
• The substrate S-2765 (Z-D-Arg-Gly-Arg-pNA.HCl) was obtained from Diapharma (West Chester, Ohio). Enzyme: • The human plasma protein factor Xa was purchased from Haematologic Technologies (Essex Junction, Vt.). Methods
All assays, which are performed in 96-well microtiter plates, measure proteolytic activity of the enzyme (factor Xa) by following cleavage of paranitroanilide substrate. The assay buffer used for proteolytic assays was Tris buffered saline (20 mM Tris, 150 mM NaCl, 5 mM CaCl2, 0.1% Bovine serum albumin (BSA), 5% Dimethly Sulfoxide (DMSO) pH 7.4). In a 96-well microtiter plate, inhibitor was serially diluted to give a range of concentrations from 0.01 nM to 10 μM (final). Duplicate sets of wells were assayed and control wells without inhibitor were included. Enzyme was added to each well,(fXa concentration=1nM), the plate was shaken for 5 seconds and then incubated for 5 minutes at room temperature. S2765 was added (100 μM final) and the plate was shaken for 5 seconds (final liquid volume in each well was 200 μl). The degree of substrate hydrolysis was measured at 405 nm on a Thermomax plate reader (Molecular Devices, Sunnyvale, Calif.) for 2 minutes. The initial velocities (mOD/min), for each range of inhibitor concentrations, were fitted to a four parameter equation using Softmax data analysis software. The parameter C, derived from the resulting curve-fit, corresponded to the concentration for half maximal inhibition (IC50).

T1 sequence (P00742 235-488 limits assumed): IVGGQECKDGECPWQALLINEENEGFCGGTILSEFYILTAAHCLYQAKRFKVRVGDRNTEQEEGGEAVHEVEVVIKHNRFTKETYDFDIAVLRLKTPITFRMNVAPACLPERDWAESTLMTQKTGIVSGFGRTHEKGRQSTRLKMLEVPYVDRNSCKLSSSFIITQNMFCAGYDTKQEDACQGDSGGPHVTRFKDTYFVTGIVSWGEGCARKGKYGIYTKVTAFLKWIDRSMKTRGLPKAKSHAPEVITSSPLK
T1 sequence (P00742 41-179 partner limits assumed): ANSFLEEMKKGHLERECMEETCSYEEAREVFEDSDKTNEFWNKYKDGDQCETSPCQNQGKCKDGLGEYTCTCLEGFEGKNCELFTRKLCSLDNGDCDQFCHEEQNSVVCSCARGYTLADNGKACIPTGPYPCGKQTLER

By IC50 is commonly meant the concentration at which inhibition is half-maximal. A high value points to weaker potency in that assay. Turning to `CN1CCN=C1c1ccc(NC(=O)C(Cc2ccccc2)NC(=O)Nc2ccc(Cl)cc2)cc1` (stereo not shown) [Example 5, N-[4-(1-methyl-4,5-dihydro-1H-imidazol-2-yl)phenyl]-2-benzyl-2-(4-chlorophenylaminocarbonylamino)-acetamide], the IC50 is ≤ 100 nM.

Consider `N=C(c1ccc(NC(=O)C(NC(=O)Nc2ccc(Cl)cc2)c2cccs2)cc1)N1CCCCC1` (stereo not shown) [Example 22], for which the IC50 is ≤ 100 nM.

Turning to `CN1CCN=C1c1ccc(NC(=O)C(Cc2c[nH]c3ccccc23)NC(=O)Nc2ccc(Cl)cc2)cc1` (stereo not shown) [Example 6, N-[4-(1-methyl-4,5-dihydro-1H-imidazol-2-yl)phenyl]-2-indol-3-ylmethyl-2-(4-chlorophenylaminocarbonylamino)-acetamide], the IC50 is ≤ 100 nM.

For the compound `CN1CCC(N2CCN(C(=O)C(NC(=O)Nc3ccc(Cl)cc3)c3ccccc3Br)CC2)CC1` (stereo not shown) [Example 83], the IC50 is ≤ 100 nM.

Take `CN1CCC(N2CCN(C(=O)C(NC(=O)Nc3ccc(Cl)cc3)c3ccccc3I)CC2)CC1` (stereo not shown) [Example 118]: the half-inhibitory concentration (IC50) was ≤ 100 nM.

Regarding `CN1CCN=C1c1ccc(NC(=O)C(Cc2cn(C)c3ccccc23)NC(=O)Nc2ccc(Cl)cc2)cc1` (stereo not shown) [Example 8, N-[4-(1-methyl-4,5-dihydro-1H-imidazol-2-yl)phenyl]-2-(1-methyl-indol-3-ylmethyl)-2-(4-chlorophenylaminocarbonylamino)-acetamide], the IC50 is ≤ 100 nM.

On to `CN1CCN=C1c1ccc(NC(=O)C(NC(=O)Nc2ccc(Cl)cc2)c2ccc(Br)cc2)cc1` (stereo not shown) [Example 119, N-[4-(1-methyl-4,5-dihydro-1H-imidazol-2-yl)phenyl]-2-(4-bromophenyl)-2-(4-chlorophenylaminocarbonylamino)-acetamide], for which the IC50 is ≤ 100 nM.

`CN(C)Cc1nccn1-c1ccc(NC(=O)C(NC(=O)Nc2ccc(Cl)cc2)c2ccccc2F)c(F)c1` (stereo not shown) [Example 58, N-[4-(2-dimethylaminomethyl-imidazol-1-yl)-2-fluorophenyl]-2-(2-fluorophenyl)-2-(4-chlorophenylaminocarbonylamino)-acetamide]: the IC50 was ≤ 100 nM.

For `N=C(c1ccc(NC(=O)C(NC(=O)Nc2ccc(Cl)cc2)c2ccccc2F)cc1)N1CCCC1` (stereo not shown) [Example 41], the IC50 is ≤ 100 nM.

With `CN1CCN=C1c1ccc(NC(=O)[C@@H](NC(=O)Nc2ccc(Cl)cc2)c2ccccc2)cc1` [Example 31, (2S) N-[4-(1-methyl-4,5-dihydro-1H-imidazol-2-yl)phenyl]-2-phenyl-2-(4-chlorophenylaminocarbonylamino)-acetamide], the IC50 is ≤ 100 nM.

Take `C#CCC(NC(=O)Nc1ccc(Cl)cc1)C(=O)Nc1ccc(C2=NCCN2C)cc1` (stereo not shown) [Example 129, N-[4-(1-methyl-4,5-dihydro-1H-imidazol-2-yl)phenyl]-2-propargyl-2-(4-chlorophenylaminocarbonylamino)-acetamide]: the IC50 is ≤ 100 nM.

Take `C#CCN(C)C(=N)c1ccc(NC(=O)C(NC(=O)Nc2ccc(Cl)cc2)c2ccccc2)c(F)c1` (stereo not shown) [Example 36, N-[4-(N-methyl-N-propargylaminoimino)-2-fluorophenyl]-2-phenyl-2-(4-chlorophenylaminocarbonylamino)-acetamide]: the IC50 was ≤ 100 nM.

As to `COc1ccccc1C(NC(=O)Nc1ccc(Cl)cc1)C(=O)Nc1ccc(C2=NCCN2C)cc1` (stereo not shown) [Example 106, N-[4-(1-methyl-4,5-dihydro-1H-imidazol-2-yl)phenyl]-2-(2-methoxyphenyl)-2-(4-chlorophenylaminocarbonylamino)-acetamide], the IC50 is ≤ 100 nM.

Consider `Cc1ccccc1C(NC(=O)Nc1ccc(Cl)cc1)C(=O)Nc1ccc(-c2ccccc2CN(C)C)cc1` (stereo not shown) [Example 89, N-[4-(2-dimethylaminomethyl-phenyl)phenyl]-2-(2-methylphenyl)-2-(4-chlorophenylaminocarbonylamino)-acetamide], for which the IC50 was ≤ 100 nM.

On to `CN1CCN=C1c1ccc(NC(=O)CNC(=O)Nc2ccc(Cl)cc2)cc1` [Example 1, N-[4-(1-methyl-4,5-dihydro-1H-imidazol-2-yl)phenyl]-2-(4-chlorophenylaminocarbonylamino)-acetamide], for which the IC50 was ≤ 100 nM.

Turning to `Cc1ccccc1C(NC(=O)Nc1ccc(Cl)cc1)C(=O)NCC1CCN(c2ccncc2)CC1` (stereo not shown) [Example 93, N-[1-(pyridin-4-yl)piperidin-4-yl]methyl-2-(2-methylphenyl)-2-(4-chlorophenylaminocarbonylamino)-acetamide], the IC50 was ≤ 100 nM.

With `COc1ccccc1C(NC(=O)Nc1ccc(Cl)cc1)C(=O)Nc1ccc(C(=N)N2CCCC2)cc1` (stereo not shown) [Example 113], the IC50 was ≤ 100 nM.

In the case of `CN1CCN=C1c1ccc(NC(=O)C(NC(=O)Nc2ccc(Cl)cc2)c2ccccc2Br)cc1` (stereo not shown) [Example 77, N-[4-(1-methyl-4,5-dihydro-1H-imidazol-2-yl)phenyl]-2-(2-bromophenyl)-2-(4-chlorophenylaminocarbonylamino)-acetamide], the IC50 was ≤ 100 nM.

With `CC(C)C(NC(=O)Nc1ccc(Cl)cc1)C(=O)Nc1ccc(C2=NCCN2C)cc1` (stereo not shown) [Example 2, N-[4-(1-methyl-4,5-dihydro-1H-imidazol-2-yl)phenyl]-2-isopropyl-2-(4-chlorophenylaminocarbonylamino)-acetamide], the IC50 is ≤ 100 nM.

In the case of `CN1CCN=C1c1ccc(NC(=O)[C@@H](CC(=O)OCc2ccccc2)NC(=O)Nc2ccc(Cl)cc2)cc1` [Example 61, (2R) N-[4-(1-methyl-4,5-dihydro-1H-imidazol-2-yl)phenyl]-2-benzyloxycarbonylmethyl-2-(4-chlorophenylaminocarbonylamino)-acetamide], the IC50 was 100 to 500 nM.

With `CCN(C)C(=N)c1ccc(NC(=O)C(NC(=O)Nc2ccc(Cl)cc2)c2ccccc2)c(F)c1` (stereo not shown) [Example 34, N-[4-(N-methyl-N-ethylaminoimino)-2-fluorophenyl]-2-phenyl-2-(4-chlorophenylaminocarbonylamino)-acetamide], the IC50 is ≤ 100 nM.

Turning to `Cc1ccccc1C(NC(=O)Nc1ccc(Cl)cc1)C(=O)Nc1ccc(C(=O)N2CCSC2)cc1` (stereo not shown) [Example 97, N-[4-(thiazolidin-3-ylcarbonyl)phenyl]-2-(2-methylphenyl)-2-(4-chlorophenylaminocarbonylamino)-acetamide], the IC50 is ≤ 100 nM.

For the compound `CC#CCC(NC(=O)Nc1ccc(Cl)cc1)C(=O)Nc1ccc(C2=NCCN2C)cc1` (stereo not shown) [Example 130, N-[4-(1-methyl-4,5-dihydro-1H-imidazol-2-yl)phenyl]-2-(but-2-yn-1-yl)-2-(4-chlorophenylaminocarbonylamino)-acetamide], the half-maximal inhibitory concentration (IC50) is ≤ 100 nM.

In the case of `CN1CCN=C1c1ccc(NC(=O)[C@H](CC(=O)OCc2ccccc2)NC(=O)Nc2ccc(Cl)cc2)cc1` [Example 59], the IC50 was ≤ 100 nM.

`COc1ccccc1C(NC(=O)Nc1ccc(Cl)cc1)C(=O)N1CCN(C2CCN(C)CC2)CC1` (stereo not shown) [Example 109, N-[4-(1-methylpiperidin-4-yl)piperazin-1-yl]-2-(2-methoxyphenyl)-2-(4-chlorophenylaminocarbonylamino)-acetamide]: the IC50 is ≤ 100 nM.

Take `CN1CCN=C1c1ccc(NC(=O)C(NC(=O)Nc2ccc(Br)cc2)c2ccccc2F)cc1` (stereo not shown) [Example 40, N-[4-(1-methyl-4,5-dihydro-1H-imidazol-2-yl)phenyl]-2-(2-fluorophenyl)-2-(4-bromophenylaminocarbonylamino)-acetamide]: the IC50 is ≤ 100 nM.

As to `Cc1ccccc1C(NC(=O)Nc1ccc(Cl)cc1)C(=O)Nc1ccc(C2=NCCN2C)cc1` (stereo not shown) [Example 84, N-[4-(1-methyl-4,5-dihydro-1H-imidazol-2-yl)phenyl]-2-(2-methylphenyl)-2-(4-chlorophenylaminocarbonylamino)-acetamide], the IC50 is ≤ 100 nM.

As for `O=C(Nc1ccc(Cl)cc1)NC(C(=O)Nc1ccc(-c2cccc[n+]2[O-])cc1)c1ccccc1Cl` (stereo not shown) [Example 99, N-[4-(N-oxo-pyridin-2-yl)phenyl]-2-(2-chlorophenyl)-2-(4-chlorophenylaminocarbonylamino)-acetamide], the IC50 was ≤ 100 nM.

In the case of `COc1ccccc1C(NC(=O)Nc1ccc(Cl)cc1)C(=O)N1CCN(C2CCCNCC2)CC1` (stereo not shown) [Example 152, 4-(homopiperidin-4-yl)piperazin-1-yl-2-(2-methoxyphenyl)-2-(4-chlorophenylaminocarbonylamino)-acetamide], the IC50 is ≤ 100 nM.

Turning to `CN1CCN=C1c1ccc(NC(=O)C(CC(=O)NCc2ccccc2)NC(=O)Nc2ccc(Cl)cc2)cc1` (stereo not shown) [Example 69, N-[4-(1-methyl-4,5-dihydro-1H-imidazol-2-yl)phenyl]-2-(benzylamino-carbonylmethyl)-2-(4-chlorophenylaminocarbonylamino)-acetamide], the IC50 is ≥ 500 nM.

As to `CSc1ccccc1C(NC(=O)Nc1ccc(Cl)cc1)C(=O)Nc1ccc(-c2cccc[n+]2[O-])cc1` (stereo not shown) [Example 126, N-[4-(N-oxo-pyridin-2-yl)phenyl]-2-(2-methylthiophenyl)-2-(4-chlorophenylaminocarbonylamino)-acetamide], the concentration for half-maximal inhibition (IC50) was ≤ 100 nM.
